According to ChEMBL document CHEMBL3351493, “Beta-aminoketones as prodrugs for selective irreversible inhibitors of type-1 methionine aminopeptidases” (Bioorg Med Chem Lett, 2014):
The source made the active and inactive calls. The calls are words filed in the database; no cut-off is given here.

Columns and labels:
[1] = biological target: T1, Methionine aminopeptidase (Escherichia coli K-12, UniProt P0AE18); experiment: Inhibition of C-terminal poly-His-tagged Escherichia coli MetAP expressed in Escherichia coli BL21(DE3) incubated for 30 mins before MGMM substrate addition by fluorescence assay
T1 sequence (P0AE18 whole entry): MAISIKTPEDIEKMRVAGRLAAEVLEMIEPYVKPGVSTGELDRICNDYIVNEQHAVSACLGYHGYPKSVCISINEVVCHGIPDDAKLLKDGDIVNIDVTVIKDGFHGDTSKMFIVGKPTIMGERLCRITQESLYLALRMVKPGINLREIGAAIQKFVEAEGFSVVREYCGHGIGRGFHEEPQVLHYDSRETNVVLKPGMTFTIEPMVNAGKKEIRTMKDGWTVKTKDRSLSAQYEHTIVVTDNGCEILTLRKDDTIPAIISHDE

[2] = biological target: Methionine aminopeptidase (Staphylococcus aureus (strain COL), UniProt Q5HEN6); experiment: Inhibition of N-terminal poly-His-tagged Staphylococcus aureus COL MetAP expressed in Escherichia coli BL21(DE3) incubated for 30 mins before MGMM substrate addition by fluorescence assay; set-up: species or system Staphylococcus aureus subsp. aureus COL
[3] = biological target: Methionine aminopeptidase 1 (Homo sapiens, UniProt P53582); experiment: Inhibition of N-terminal poly-His-tagged human MetAP-1 expressed in Escherichia coli BL21(DE3) incubated for 30 mins before MGMM substrate addition by fluorescence assay
Escherichia coli = experiment: Antimicrobial activity against Escherichia coli BL21(DE3) assessed as inhibition of bacterial growth at 200 uM incubated at 37 degC for 7 hrs; assay type: functional; conditions: for inhibition at 200 µM: BL21-DE3, 7 h
[4] = Half life assessed as decomposition into amines and unsaturated ketones at 250 uM in 50 mM Tris/maleate pH 7.5 buffer by HPLC method; assay type: physicochemical; conditions: for half-life at 250 µM: Tris/maleate buffer, pH 7.5; for t1/2: buffer, pH 7.5, 250 µM
HaCaT = experiment: Cytotoxicity against human HaCaT cells at 1.6 to 100 ug/ml after 72 hrs by crystal violet assay; assay type: cell-based
[5] = Cytotoxicity against human Flow 2002 cells at 1.6 to 100 ug/ml after 72 hrs by crystal violet assay; assay type: cell-based; conditions: flow 2002, 72 h
A 172 = experiment: Cytotoxicity against human A172 cells at 1.6 to 100 ug/ml after 72 hrs by crystal violet assay; assay type: functional, cell-based
CAPAN-1 = experiment: Cytotoxicity against human Capan1 cells at 1.6 to 100 ug/ml after 72 hrs by crystal violet assay; assay type: functional, cell-based
Ca-Ski = experiment: Cytotoxicity against human CaSki cells at 1.6 to 100 ug/ml after 72 hrs by crystal violet assay; assay type: functional, cell-based
SW707 = experiment: Cytotoxicity against human SW707 cells at 1.6 to 100 ug/ml after 72 hrs by crystal violet assay; assay type: functional, cell-based
Calu-6 = experiment: Cytotoxicity against human Calu6 cells at 1.6 to 100 ug/ml after 72 hrs by crystal violet assay; assay type: functional, cell-based
MeWo = experiment: Cytotoxicity against human MeWo cells at 1.6 to 100 ug/ml after 72 hrs by crystal violet assay; assay type: functional, cell-based
BT-474 = experiment: Cytotoxicity against human BT474 cells at 1.6 to 100 ug/ml after 72 hrs by crystal violet assay; assay type: functional, cell-based
A-431 = experiment: Cytotoxicity against human A431 cells at 1.6 to 100 ug/ml after 72 hrs by crystal violet assay; assay type: functional, cell-based
[6] = biological target: Methionine aminopeptidase 2 (Homo sapiens, UniProt P50579); conditions: sf9
Chain of Methionine aminopeptidase 2 (P50579 whole entry): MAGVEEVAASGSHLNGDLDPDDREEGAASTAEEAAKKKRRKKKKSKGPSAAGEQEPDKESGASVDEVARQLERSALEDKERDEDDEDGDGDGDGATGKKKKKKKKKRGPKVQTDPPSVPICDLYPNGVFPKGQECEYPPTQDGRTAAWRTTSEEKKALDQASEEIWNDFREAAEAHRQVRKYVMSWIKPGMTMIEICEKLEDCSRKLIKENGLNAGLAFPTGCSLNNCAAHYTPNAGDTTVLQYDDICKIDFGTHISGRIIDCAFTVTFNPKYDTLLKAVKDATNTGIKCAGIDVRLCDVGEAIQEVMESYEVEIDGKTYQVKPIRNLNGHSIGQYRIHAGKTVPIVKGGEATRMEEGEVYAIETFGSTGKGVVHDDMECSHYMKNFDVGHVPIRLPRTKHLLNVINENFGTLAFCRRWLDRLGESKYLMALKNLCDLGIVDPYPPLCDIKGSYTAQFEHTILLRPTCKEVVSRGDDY
Description: Inhibition of human MetAP-2 expressed in Sf9 cells incubated for 60 mins before MGMM substrate addition by fluorescence assay

IC50 ([1]; read-out: IC50)	IC50 [2]	IC50 [3]	half-life at 250 µM [4]	IC50 [6]	IC50 [1]	t1/2 [4]	IC50 ([2]; read-out: IC50)	SMILES	inhibition at 200 µM (Escherichia coli)	Activity (HaCaT)	Activity [5]	Activity (A 172)	Activity (CAPAN-1)	Activity (Ca-Ski)	Activity (SW707)	Activity (Calu-6)	Activity (MeWo)	Activity (BT-474)	Activity (A-431)	inhibition (Escherichia coli)
3.7 µM	Not Active	Not Active	10.5 h	Not Active				COc1ccc2c(c1)C(=O)C(CN1CCCCC1)CC2.Cl (stereo unspecified)	30%	Toxic	Toxic	Active	Active	Active	Active	Active	Active	Active	Active	
	Not Active	Not Active		Not Active	Not Active	Stable		CN(C)CC1(C)Cc2ccccc2C1=O.Cl (stereo unspecified)		Non-toxic	Non-toxic	inactive	inactive	inactive	inactive	inactive	inactive	inactive	inactive	inactive
60.8 µM	Not Active	Not Active	116 h	Not Active				CN(C)CC1CCc2sccc2C1=O.Cl (stereo unspecified)	10%	Toxic	Toxic	Active	Active	Active	Active	Active	Active	Active	Active	
0.7 µM		Not Active		Not Active			18.9 µM	C=C1Cc2cc(OC)c(OC)cc2C1=O	25%	Toxic	Toxic	Active	Active	Active	Active	Active	Active	Active	Active	
3.8 µM	Not Active	Not Active	4.82 h	Not Active				CC1CC(CN(C)C)C(=O)c2ccccc21.Cl (stereo unspecified)	75%	Toxic	Toxic	Active	Active	Active	Active	Active	Active	Active	Active	
	Not Active	Not Active		Not Active	Not Active	Stable		COc1cccc(C(=O)CCN(C)C)c1.Cl		Toxic	Toxic	Active	Active	Active	Active	Active	Active	Active	Active	inactive
8.4 µM	Not Active	Not Active	5.78 h	Not Active				CN(C)CC1CCc2ccccc2C1=O.Cl (stereo unspecified)	68%	Toxic	Toxic	Active	Active	Active	Active	Active	Active	Active	Active	
2.8 µM			0.167 h	Not Active			26 µM	CN(C)CC1Cc2ccccc2C1=O.Cl (stereo unspecified)	90%	Toxic	Toxic	Active	Active	Active	Active	Active	Active	Active	Active	
2 µM			0.75 h	Not Active			42.1 µM	COc1ccc2c(c1)CC(CN(C)C)C2=O.Cl (stereo unspecified)	35%	Toxic	Toxic	Active	Active	Active	Active	Active	Active	Active	Active	
0.83 µM			0.2 h	Not Active			17 µM	COc1ccc2c(c1)C(=O)C(CN(C)C)C2.Cl (stereo unspecified)	19%	Toxic	Toxic	Active	Active	Active	Active	Active	Active	Active	Active	
1.1 µM			0.4 h	Not Active			32 µM	Cc1ccc2c(c1)CC(CN(C)C)C2=O.Cl (stereo unspecified)	100%	Toxic	Toxic	Active	Active	Active	Active	Active	Active	Active	Active	
7 µM			28.9 h	Not Active			46 µM	CN(C)CC1Cc2c(cccc2C(F)(F)F)C1=O.Cl (stereo unspecified)	22%	Toxic	Toxic	Active	Active	Active	Active	Active	Active	Active	Active	
0.7 µM			0.233 h	Not Active			15 µM	Cc1ccc2c(c1)C(=O)C(CN(C)C)C2.Cl (stereo unspecified)	45%	Toxic	Toxic	Active	Active	Active	Active	Active	Active	Active	Active	
	Not Active	Not Active		Not Active	Not Active			COc1ccc(C(=O)CCN(C)C)cc1.Cl		Toxic	Toxic	Active	Active	Active	Active	Active	Active	Active	Active	inactive

SMILES	IC50 ([1]; read-out: IC50)	IC50 [2]	IC50 [3]	half-life at 250 µM [4]	IC50 [6]	IC50 [1]	t1/2 [4]	IC50 ([2]; read-out: IC50)	inhibition at 200 µM (Escherichia coli)	Activity (HaCaT)	Activity [5]	Activity (A 172)	Activity (CAPAN-1)	Activity (Ca-Ski)	Activity (SW707)	Activity (Calu-6)	Activity (MeWo)	Activity (BT-474)	Activity (A-431)	inhibition (Escherichia coli)
CN(C)CCC(=O)c1ccccc1.Cl		Not Active	Not Active		Not Active	Not Active				Toxic	Toxic	Active	Active	Active	Active	Active	Active	Active	Active	inactive
COc1ccc(C(=O)CCN2CCCCC2)cc1.Cl		Not Active	Not Active		Not Active	Not Active				Toxic	Toxic	Active	Active	Active	Active	Active	Active	Active	Active	inactive
